Experimental data from PMC5571359, “Screening the Medicines for Malaria Venture Pathogen Box across Multiple Pathogens Reclassifies Starting Points for Open-Source Drug Discovery” (Antimicrobial Agents and Chemotherapy, 2017).
Where two headings read alike, the source gives them in different places.

How the values were obtained:
[1] = test system: NF54-pfs16-LUC-GFP stage IV gametocytes; assay: Plasmodium falciparum late stage gametocyte (LSG) image-based assay; assay type: cell-based
[2] = test system: T. b. brucei 427 bloodstream trypanosomes; assay: T. b. brucei resazurin viability assay; assay type: cell-based, Trypanosoma brucei brucei; conditions: Trypanosoma brucei
[3] = test system: T. cruzi C4 β-galactosidase reporter parasite in MRC 5SV2 host cells; conditions: cited from earlier work
T. brucei brucei = conditions: ref Pbox supporting information, cited from earlier work
T. brucei rhodesiense = conditions: ref Pbox supporting information, cited from earlier work; for IC50: read-out: T .b. rohdensie Pbox IC50
[4] = test system: L. infanium (macrophages); set-up: method as in Pbox supporting information; conditions: ref Pbox supporting information; cited from earlier work
HepG2 = conditions: cited from earlier work
[5] = test system: Plasmodium falciparum 3D7 asexual blood stage; assay: microbe, parasite or virus in culture
HEK293 cells = assay: HEK293 resazurin cell cytotoxicity assay; conditions: for IC50 / inhibition at 20 µM: Homo sapiens, HEK293, read-out: HEK % Inhibition 20uM/IC50 Discovery Biology
[6] = test system: T. cruzi intracellular amastigotes; assay: Intracellular anti-Trypanosoma cruzi image-based assay (amastigotes); assay type: cell-based; conditions: Trypanosoma cruzi; for Emax: PBox kinetoplastid set compounds active against T. cruzi alone, read-out: Emax against T. cruzi (subefficacious effect); for IC50: intracellular amastigotes
[7] = Plasmodium falciparum, NF54, read-out: Antiplasmodial IC50 (GAM / LSG), PBox compounds, stage IV gametocytes, single determination
[8] = read-out: T b.brucei Discovery Biology IC50
[9] = ref Pbox supporting information, read-out: T. cruzi Pbox IC50
[10] = read-out: T.b. brucei Pbox IC50
[11] = HepG2, ref PBox supporting information
[12] = 3D7, read-out: Antiplasmodial IC50 (ABS), PBox compounds, P. falciparum 3D7
[13] = read-out: T cruzi Discovery Biology IC50
[14] = PBox compounds, read-out: IC50 T. brucei brucei (Discovery Biology)

Row | Structure (SMILES) | IC50 [2, 8] [nM] | IC50 [3, 9] [µM] | IC50 (T. brucei brucei; [10]) [µM] | IC50 (T. brucei rhodesiense) [nM] | IC50 [4] [µM] | HepG2 PBox CC20 (HepG2; [11]) [µM] | IC50 (HEK293 cells) [µM] | other results
1 | CC1=Nc2ccc(Cl)cc2C(O)(c2ccc(C)cc2)N1CCN1CCCCC1 (stereo not drawn) [MMV688279] | 4520 | 4.04 | 0.98 | 430 | 4.06 | 10.0 | > 20 | IC50 [1, 7]: 2400 nM; IC50 ([1]; read-out: Antiplasmodial IC50 (GAM / LSG), PBox compounds, stage IV gametocytes, single determination): 2350 nM; IC50 [5, 12]: 320 nM
2 | CO/N=C(\C(=O)OC)c1ccccc1CO/N=C(\C)c1cccc(C(F)(F)F)c1 [MMV688754] | – | 1.94 | 33.6 | 26200 | > 64 | – | > 20 | IC50 [1, 7]: 140 nM; IC50 ([5]; 3D7, read-out: Antiplasmodial IC50 (ABS)): 190 nM
3 | COc1ccc(C2=NCCN2)cc1-c1cn(-c2cccc(C3=NCCN3)c2)nn1 [MMV688547] | – | > 32 | > 32 | 1630 | > 32 | >80 | > 20 | IC50 [5, 12]: 1020 nM
4 | CC(C)(C)C(O)C(Oc1ccc(-c2ccccc2)cc1)n1cncn1 (stereo not drawn) [MMV688942, Bitertanol] | – | 0.055 | 32.9 | 28000 | > 64 | – | > 20 | Emax [6]: < 100%; IC50 [6, 13]: 80 nM
5 | CCC(=O)Nc1ccccc1C(=O)Nc1ccccn1 [MMV202553] | 1010 | > 64 | 2.46 | 1310 | > 64 | – | > 20 | IC50 [2, 14]: 1000 nM
6 | CS(=O)(=O)c1ccccc1C(=O)N(Cc1ccccc1)c1ccccc1 [MMV688798] | 500 | 35.4 | 0.56 | 400 | > 64 | – | > 20 | –
7 | NCCN(C(=O)c1ccc(Cl)cc1Cl)c1ccc(OCc2ccc(Cl)cc2)cc1 [MMV688371] | 240 | 0.62 | < 0.13 | < 130 | 0.63 | – | > 20 | IC50 [6, 13]: 4350 nM; activity against T. brucei rhodesiense (T. brucei rhodesiense): demonstrated activity
8 | O=C(NCc1nnc2n1CCCCC2)c1ccc(-c2ccc(F)cc2)o1 [MMV688796] | 230 | 2.07 | 0.1 | 130 | > 64 | – | > 20 | IC50 [6, 13]: 1520 nM; activity against T. brucei rhodesiense (T. brucei rhodesiense): demonstrated activity
9 | Cc1ccc(S(=O)(=O)Nc2ccc(CN3CCN(C(=O)c4cccc(C#N)c4)CC3)cc2)cc1 [MMV689028] | – | – | – | 120 | 32 | – | > 20 | IC50 ([6]; PBox compounds, 48 h exposure, read-out: IC50 T. cruzi (Discovery Biology)): 670 nM; IC50 [2, 14]: 240 nM; IC50 ([3]; 7 days exposure, ref PBox supporting information, read-out: T. cruzi IC50 in the PBox supporting information file): 1.2 µM; IC50 (T. brucei brucei; read-out: T. brucei brucei IC50, PBox): 0.14 µM; activity against T. brucei rhodesiense (T. brucei rhodesiense): demonstrated activity
10 | CO[C@@H]1CN(c2ccc(C#CC3(O)CN4CCC3CC4)c(Cc3ccccc3)n2)C[C@H]1O (stereo partly drawn) [MMV688415] | – | < 0.13 | 16.1 | 4000 | 17.3 | – | > 20 | Emax [6]: < 100%; IC50 [6, 13]: 100 nM; HepG2 PBox CC20 (HepG2): 38.4 µM
11 | N=C(N)c1ccc(-c2cc(-c3ccccc3)on2)cc1 [MMV688514] | 3530 | 4.04 | 4.06 | 1080 | 2.54 | 2.6 | > 20 | –
12 | CNC(=O)C1Cc2ccccc2N1C(=O)Cc1ccc(F)cc1 (stereo not drawn) [MMV188296] | 1470 | > 64 | 0.49 | 380 | > 64 | – | > 20 | –
13 | CCN(CC)S(=O)(=O)c1ccc(C(=O)Nc2cc(C)nn2-c2nc(C)c(C)c(=O)[nH]2)cc1 [MMV595321] | 4340 | 1.96 | 5.3 | 1700 | 6.87 | – | – | activity in the HEK293 cytotoxicity assay (HEK293 cells): comparable activity; inhibition at 20 µM (HEK293 cells): 74%
14 | c1ccc(Oc2ccc(-c3cc(N4CCNCC4)[nH]n3)cc2)cc1 [MMV687706] | 5050 | 4.48 | 0.99 | 970 | 4.06 | 6.4 | > 20 | –
15 | Cc1nn2c(O)c3c(nc2c1-c1ccc(F)cc1)CCCC3 [MMV099637] | 4430 | 2.21 | 1.94 | 480 | 50.4 | – | > 20 | –
16 | COc1cc(C2=NCCN2)ccc1-n1cc(-c2cccc(C3=NCCN3)c2)nn1 [MMV688474] | – | > 32 | > 32 | 3810 | > 32 | >80 | – | –
17 | Cc1cccnc1NC(=O)c1cccc(OCc2c(C)noc2C)c1 [MMV688793] | 1160 | > 64 | 2.07 | 650 | > 64 | – | > 20 | IC50 [2, 14]: 1200 nM
18 | COc1cc(C2=NCCN2)ccc1-c1cn(-c2cccc(C3=NCCN3)c2)nn1 [MMV688407] | – | 25 | > 32 | 3720 | > 32 | 22.9 | – | –
19 | c1ccc(Oc2ccc(-c3cc(C4CCOCC4)[nH]n3)cc2)cc1 [MMV687762] | 1790 | 16.4 | 7.58 | 3770 | > 32 | 10.8 | – | –
20 | COc1cc(C2=NCCN2)cc2cc(-c3ccc(C4=NCCN4)cc3)oc12 [MMV688362] | – | 13.3 | 14.5 | 780 | > 32 | 14.3 | > 20 | IC50 ([1]; Plasmodium falciparum, NF54, read-out: Pf Stage IV GAMS Discovery Biology IC50, stage IV gametocytes): 6670 nM; IC50 [5, 12]: 590 nM
21 | CC1=Nc2ccc(Cl)cc2C(c2ccccc2)N1CCNC(=O)CN(C)C (stereo not drawn) [MMV688410] | – | 17.1 | 3.78 | 3110 | 10.1 | 16.4 | – | –
22 | CO[C@@H](C(=O)N1Cc2n[nH]c(NC(=O)c3ccc(N4CCN(C)CC4)cc3)c2C1)c1ccccc1 [MMV676600] | 1340 | 6.48 | 1.02 | 370 | 4.06 | 4.8 | – | inhibition at 20 µM (HEK293 cells): 45%
23 | CC1COC(Cn2cncn2)(c2ccc(Oc3ccc(Cl)cc3)cc2Cl)O1 (stereo not drawn) [MMV688943, difenoconazole] | – | 0.015 | 32.5 | 26200 | 44.7 | – | > 20 | Emax [6]: < 100%; IC50 [6, 13]: 100 nM
